Patent US12419896B2, “Compositions and dosage forms for oral delivery” (RHODES TECHNOLOGIES, priority 2018, dated 2025)

Experiments:
[1] = most pharmacological tests; Ophthalmic Res. (1992) 24:142-149; cited from earlier work
[2] = versus Δ^9-THC; oxidation to cannabinol, shelf life; cited from earlier work
[3] = Miscibility of sesame oil in 40% IPA/HFA 134a; assay type: physicochemical; conditions: based on 10% w/v dronabinol in sesame oil
Experimental: In some embodiments, formulations deliver between 0.25 mg and 2 mg dose of dronabinol after application. Table 4 details the % w/w dronabinol required in the canister to achieve such doses for different actuator volumes available ([…]). The miscibility of sesame oil in 40% IPA/HFA 134a has been determined to be 7.2% w/w, equivalent to 0.8% dronabinol, based on 10% w/v dronabinol in sesame oil. Therefore, the dose of dronabinol (mg) produced from each of the difference actuator volumes based on a level of 0.8% w/w dronabinol in canisters has been presented in Table 5.

[4] = cited from earlier work

Compound	Potency compared with Δ^9-THC [1]	Stability compared with Δ^9-THC [2]	Level of dronabinol equivalent to the sesame oil miscibility limit [3] [%]	Solubility in water [4]
CCCCCc1cc(O)c2c(c1)OC(C)(C)[C@@H]1CC=C(C)C[C@@H]21 (relative stereo) [Δ^8-THC, (−)-trans-Δ^8-tetrahydrocannabinol]	less potent	more stable	–	–
CCCCCc1cc(O)c2c(c1)OC(C)(C)C1CCC(C)=CC21 (single isomer, unassigned; (-)) [dronabinol, (−)-trans-Δ^9-tetrahydrocannabinol]	–	–	0.8	insoluble
